# Data: patent EP0686425A1, “PROCESS FOR PRODUCING MICROCAPSULE OF HYDROPHOBIC DRUG” (SANSUI CO., LTD., priority 1993, dated 1995)
# How the values were obtained:
# [1] = test system: Japan white breeding rabbits; conditions: rabbit, in vivo
# Method: Six medically inspected Japan white breeding rabbits (conventional) were given a haircut along the spine and 6 spots of 2x3 cm each were closed patched with 0.5 g of Composition No.6 powder or 0.25 g of a powder of the compound represented by chemical formula 2 using bandage and gauze. Evaluation was conducted for the degree of erythema, scab formation and edema formation at a time interval of after 4 hours, 1 day, 2 days, 3 days, 4 days and 5 days.
# Evaluation standard (Draize method)
# From the above table, the following primary irritancy was obtained. Irritation index was obtained from Equation 1. Irritation index was obtained from the following table. Irritation index and safety classification are as follows. [formula]
# Evaluation was conducted according to the method employed in Example 6.
# [2] = cited from earlier work; for solubility in water: temperature not given
# [3] = Elution test of microcapsule powder in Isopal G; assay type: physicochemical; conditions: unencapsulated compound of chemical formula 1, temperature not given
# Method: Elution test was conducted on microcapsule powder using Isopal G (aliphatic solvent EXXON Chemical company) which dissolves the compound of the chemical formula 1 in an optional rate. […] of the capsule powder was added to 10ml of Isopal G, and the mixture was maintained at room temperature or at 40 °C for 12 hours, and the amount of the compound of the chemical formula 1 eluted from the microcapsules was determined by gas chromatography. The rate of elution (active ingredient in Isopal G/added amount of active ingredient) was calculated.
smiles,measurement,setting,value
"CCCCCCCCn1sc(Cl)c(Cl)c1=O [Compound of formula 4, 4,5-Dichloro-2-n-octyl-4-isothiazoline-3-one]","Skin irritation, safety classification (irritation index)",[1],strong irritation
same,water solubility (25 °C),[2],6 ppm
"N#CSCSc1nc2ccccc2s1 [Compound of the chemical formula 7, thiocyano methylthiobenzothiazol]","Skin irritation, safety classification (irritation index)",[1],medium irritant
same,solubility in water,[2],100 ppm
"S=C=Nc1ccc(Cl)c(Cl)c1 [Unencapsulated, 3,4-dichlorophenyl-isothiocyanate]",rate of elution (active ingredient in Isopal G/added amount of active ingredient),[3],100% elution
"O=S1(=O)CC(Cl)(Cl)C(Cl)(Cl)C1 [compound of the chemical formula 2, Tetrachlorotetrahydrothiophene-1,1-dioxide]",water solubility (25 °C),[2],about 900 ppm
"CNC(=O)Oc1cccc2c1OC(C)(C)C2 [compound of the chemical formula 6, 2,3-dihydro-2,2-dimethylbenzofuran-7-yl-methylcarbamate]",solubility in water,[2],700 ppm
